The values below come from patent US20150023877A1, “METHODS OF PARKINSONS DISEASE DIAGNOSIS AND MONITORING TREATMENT” (The Board of Trustees of the Leland Stanford Junior …, priority 2013, published 2015).

The structures appear in SMILES notation. Several values for one entry are separate records, joined by “and”; a condition that tells them apart may be missing. Equal values may be shown once. Read-outs that look alike come from different tables or passages of the source.

In data set [1] the test system is pRPE cells. Nature of the data set: In vitro cell uptake of ^18F-P3BZA in pRPE cells. The data set is classed as cell-based. The following applies: for uptake of ^18F-P3BZA in pRPE cells: without L-tyrosine. The protocol: (§1) pRPE (generation 3, 5×10^5) or control ARPE-19 cells were plated in a 12-well plate pretreated with or without L-tyrosine (2 mM) for 24 h. They were incubated with 74 kBq (2 μCi)/well of ^18F-P3BZA at 37° C. for 15, 30, 60, and 120 minute. The cells were washed three times with chilled PBS and lysed with 500 μL of 0.1 M NaOH. The cell lysates were then collected and the radioactivity of the lysates was measured with a γ counter (Perkin-Elmer, MA, USA). The cell uptake was expressed as the percentage of total applied radioactivity. All experiments were performed with triplicate samples. Similarly, uptake of ^18F-P3BZA at 30 minute incubation was determined in pRPE cells at different passages (pRPE-P3, pRPE-P5 and pRPE-P8) and control ARPE19 cells, with or without L-tyrosine pretreatment.

In a further data set the test system is ARPE-19 cells. Nature of the data set: In vitro cell uptake of ^18F-P3BZA in control ARPE-19 cells. It is filed as cell-based, human. The protocol:
as §1

The nature of data set [2]: Dynamic PET imaging in normal rat brain. It is filed as in vivo. The protocol: (§2) Small animal PET/CT imaging was performed on a Siemens Inveon small-animal multimodality PET/CT system (Preclinical Solutions; Siemens Healthcare Molecular Imaging, Knoxville, Tenn.). For each rat, ^18F-P3BZA (7.4 MBq, 200 μCi) was administrated through tail vein.
To assess the in vivo kinetics of ^18F-P3BZA in normal rat brain, dynamic PET imaging (10×1 minute, 10×2 minute, 2×5 minute, 3×10 minute; total of 25 frames) was initiated immediately after administration of the probe and terminated 70 minute later on normal rats (n=4).
CT scan (632 slices at 206 μm) was performed immediately after PET imaging for both photon attenuation correction and image co-registration with PET image data for anatomical information. PET Images were reconstructed with a 2-dimensional ordered-subsets expectation maximization algorithm (OSEM 2D). ROIs were drawn in bilateral striatum using the Inveon Research Workspace software. The average radioactivity concentration in the ROIs was obtained from the mean pixel values within the ROIs volume. […] The results were then divided by the injected dose to obtain an image ROI-derived % ID/g, and the TAC was then calculated and obtained.

Data set [3] has as its system gelatin microcarrier-bound pRPE cells (pRPE-GMs). Nature of the data set: Static PET/CT of intrastriatal implanted pRPE-GMs, 2 days after implantation. The data set is classed as in vivo, rat. The protocol: (§3) Female Wistar rats (Charles Rivers Laboratory, Wilmington, Mass., USA) weighing 176-200 g were used in this study. All animal work was conducted in accordance with the Administrative Panel on Laboratory Animal Care at Stanford University. The implantation procedure was performed following the surgical procedures described in a previous report^36. Animals were anesthetized using isofluorane and were implanted at left striatum with RPE-GMs using the following (flat-skull) coordinates: anterior posterior (AP) −0.4; medial lateral (ML) ±3.5; dorsal ventral (DV) −5.0. The control GMs-alone were implanted on the contralateral side of the striatum and performed using the same procedure. Before the implantation procedure, solutions contained RPE cells (melanotic pRPE or amelanotic ARPE-19, 12,000˜15,000 cells in 10 μL) were drawn into a sterile 50 μL Hamilton syringe (Hamilton Company, Reno, Nev.).
(§4) Small animal PET/CT imaging was performed on a Siemens Inveon small-animal multimodality PET/CT system (Preclinical Solutions; Siemens Healthcare Molecular Imaging, Knoxville, Tenn.). For each rat, ^18F-P3BZA (7.4 MBq, 200 μCi) was administrated through tail vein. […]

The test system of data set [4] is gelatin microcarrier-bound ARPE-19 cells (ARPE-19-GMs). Briefly: Static PET/CT of intrastriatal implanted ARPE-19-GMs, 2 days after implantation. It is filed as in vivo, rat. The protocol:
as §3, §4

A further data set relates to pRPE-GMs. Nature of the data set: Longitudinal PET/CT after implantation of pRPE-GMs. It is filed as in vivo, rat. The protocol: as §2
To evaluate the potential of ^18F-P3BZA for monitoring the survival and function of RPE cells implanted, longitudinal PET/CT scans were acquired at day 2, 9 and 16 after cell implantation of pRPE-GMs in the left and GMs as control in right striatum in normal rats (n=12). PET/CT imaging started at 1 h after tail vein injection of ^18F-P3BZA Immediately after PET/CT scan at each time point (day 2, 9 and 16), four rats were sacrificed and the brain slices were prepared for immunohistochemistry and Fontana-Masson staining.

Data set [5] relates to gelatin microcarrier-bound pRPE cells. Nature of the data set: Ex vivo autoradiography of rat brain sections. The data set is classed as in vivo. The following applies: after static PET/CT. The source says: The sacrificed rat brains were removed and embedded in optimum cutting temperature (O.C.T.) compound (Tissue-Tek, Sakura, USA). Subsequently, thick axial blocks (12 μm) were cut using a cryostat microtome HM500 (Microm, HM 500 M, Heidelberg, Germany). The sections were mounted on microscope slides (Fisherbrand Superfrost Plus microscope slides, Fisherbrand Superfrost Plus Microscope Slides, Vernon Hills, Ill., USA). The representative coronal sections through the striatum (including visible injection sites) were used for autoradiography immediately or preserved in −80° C. for other postmortem analysis.
After static PET/CT imaging, frozen brain sections were prepared immediately for autoradiography. The sections were air-dried for 10 minute, and then exposed to a radioactivity sensitive storage phosphor screen (Perkin-Elmer, USA) for 24 h at 4° C. The imaging plates were analyzed using a Typhoon 9410 variable mode imager (Amersham Biosciences, Salt Lake City, Utah, USA), and the image data were visualized and processed by Image J (image processing and analysis software in Java).

The subject of another data set is MCF-7-TYR. The following applies: cited from earlier work.
In another data set the test system is B16F10. Conditions: cited from earlier work.
Another data set relates to MCF-7 cells. Conditions: cited from earlier work.
Data set [6] relates to implantation site (striatum). The following applies: cited from earlier work.
Data set [7] deals with pRPE cells. Briefly: Melanin quantification analysis in pRPE cells. It is filed as cell-based, porcine. The following applies: 2 mM L-tyrosine pre-treatment; from 14.34±0.48 untreated. The protocol: In vitro measurement of melanin content was performed for pRPE and ARPE-19 cells in parallel with the ^18F-P3BZA cell uptake assay according to methods reported previously with slight modifications^35. The cells were harvested after pretreatment with or without 2 mM L-tyrosine for 24 h and washed with PBS, then they were incubated overnight in 500 μL of 1 N NaOH at room temperature. The solution was pipetted repeatedly to homogenize the extracts. The concentration of total protein was determined using a microBCA protein assay kit (Pierce Biotechnology) and then the concentration of samples was adjusted to 0.4 μg/μL. Extracts (100 μL) were added into 96-well plates in triplicate. The relative melanin content of samples was determined by measuring their absorbance at 405 nm using a plate reader (TECAN, Research Triangle Park, N.C.). Results were expressed as absorbance of 405 nm per mg protein (A 405 nm/mg protein).

Setting [8] is: after implantation of the RPE cells.
[9] abbreviates: before implantation of the RPE cells.

As for `CCN(CC)CCNC(=O)c1ccc([18F])cn1` [^18F-P3BZA, N-(2-(diethylamino)ethyl)-^18F-5-fluoropicolinamide], the “uptake of ^18F-P3BZA in L-tyrosine treated pRPE cells” value in the data set on pRPE cells [1] (2 mM L-tyrosine pre-treatment, 30 minute incubation) is on record as 39.07±1.65%. In addition, the “uptake of ^18F-P3BZA in pRPE cells” value with pRPE cells [1] (60 minutes incubation) was 9.09%±0.31 % of applied activity; with pRPE cells [1] (120 minutes incubation) it was 8.61%±0.47 % of applied activity; with pRPE cells [1] (pRPE passage 3, 30 minutes incubation) it was 10.72±0.38 % of applied activity and 10.72%±0.38 % of applied activity and 10.71%±0.38 % of applied activity. The “fold uptake in passage 3 pRPE cells vs control amelanotic ARPE-19 cells” value in the data set with pRPE cells [1] (in vitro) was 9 fold. The “increase in uptake in pRPE cells after tyrosine treatment vs nontreatment groups” value in the data set on pRPE cells [1] (multiple time points, FIG. 2A) is “three- to fourfold higher”. Further, the results for the “increase of uptake after tyrosine treatment” value in the data set on pRPE cells [1] (pRPE-P3), in the data set with pRPE cells [1] (pRPE-P5) and with pRPE cells [1] (pRPE-P8) were 48.8%, 37.8% and 31.9%, respectively. Also, the “decreasing rate of cell uptake per passage” value in the data set on pRPE cells [1] (pRPE-P3, P5, P8) is −1.45 % of applied activity per passage. In the data set on pRPE cells [1] (passage 5, 30 minute incubation), the “uptake of ^18F-P3BZA in pRPE-P5 cells” value is listed as 6.25%±0.59 % of applied activity. Also, the “uptake of ^18F-P3BZA in pRPE-P8 cells” value in the data set with pRPE cells [1] (passage 8, 30 minute incubation) is 3.29%±0.15 % of applied activity. Besides, in the data set on ARPE-19 cells (15, 30, 60, 120 minutes), the “uptake in control ARPE-19 cells at each time point” value is “remained low”. In addition, in the data set on ARPE-19 cells (30 minute incubation), the “uptake of ^18F-P3BZA in control ARPE-19 cells” value was 1.31%±0.15 % of applied activity. The “uptake in ARPE-19 cells before and after tyrosine treatment” value in the data set on ARPE-19 cells (with vs without L-tyrosine) was “no difference”. In addition, the results for the “uptake in rat brain” value in [2] (2 min after injection (peak)), in data set [2] (28 min after injection) and in data set [2] (60 min after injection) were 7.61±0.30 % ID/g, 3.54±0.21 % ID/g and 1.04±0.37 % ID/g, respectively. Also, the blood-brain barrier passage entry in data set [2] (PET images, normal rat) is “could rapidly cross the blood-brain barrier”. In data set [3], the “pRPE-GMs to adjacent normal striatum uptake ratio” value was found to be 3.19±0.53. The “pRPE-GMs to control gelatin microcarriers uptake ratio” value in [3] came to 3.05±0.57. For the same compound, the “ARPE-19-GMs to gelatin microcarriers uptake ratio” value in data set [4] is on record as 1.21±0.36. Further, the figures for the “uptake in pRPE-GMs” value in the data set on pRPE-GMs (2 days post-implantation), with pRPE-GMs (9 days post-implantation) and with pRPE-GMs (16 days post-implantation) were 3.39±0.18 % ID/g, 2.49±0.41 % ID/g and 1.20±0.13 % ID/g, respectively. Further, in data set [5], the “autoradiography signal of pRPE-GMs transplant site vs ARPE-19-GMs or GMs alone sites” value is reported as “significantly higher”. In addition, the cell uptake is reported as 5.57±0.31% in the data set on MCF-7-TYR (0.5 h incubation); 7.14±0.18% in the data set with MCF-7-TYR (1 h incubation); 6.85±0.08% in the data set with B16F10 (0.5 h incubation); 8.55±0.24% with B16F10 (1 h incubation); 0.25±0.05% in the data set with MCF-7 cells (0.5 h incubation); 0.32±0.07% in the data set with MCF-7 cells (1 h incubation).
For the compound `N[C@@H](Cc1cc(O)c(O)cc1[18F])C(=O)O` [^18F-fluoro-L-DOPA], the “implantation site (striatum) to cortex uptake ratio” value is 1.48±0.07 in data set [6] (setting [8]) and 1.35±0.10 in data set [6] (setting [9]).
As to `CCN1CCC[C@H]1CNC(=O)c1c(O)c(Cl)cc(Cl)c1O[11CH3]` (racemic) [^11C-raclopride], the “implantation site (striatum) to cortex uptake ratio” value in data set [6] (setting [8]) was 2.44±0.67; in data set [6] (setting [9]) it was 2.41±0.74.
For the compound `N[C@@H](Cc1ccc(O)cc1)C(=O)O` [L-tyrosine], the “melanin content in pRPE cells (P3)” value in the data set with pRPE cells [7] is recorded as 21.34±1.73 A 405 per mg protein.
